The test has as its target HiBit-WIZ fusion protein (Homo sapiens, UniProt O95785+Q96SW2). Description: Quantification of WIZ protein levels in HiBit tag fusion protein assay (WIZ HiBit assay in 293T cells). The format is cell-based. Also noted: Dmax: dose or concentration left out as unconfirmed. The settings on record: for Dmax / remaining activity / remaining activity at up to 25 µM: HEK-293T, 293T cells; for remaining activity: read-out: WIZ Amax, DMSO-normalized, curve-fitted percentage of WIZ-HiBit remaining at 25 uM; for DC50: WIZ HiBit assay in 293T cells, 10-point, 5-fold dose response, highest concentration 25 μM, about 18 hours, read-out: WIZ AC50; for remaining activity at up to 25 µM: DMSO-normalized, curve-fitted percentage of WIZ-HiBit remaining at 25 uM, read-out: WIZ Amax.

[1] abbreviates: read-out: % degradation of WIZ (100-Amax), 100 minus Amax.
The mark [2] stands for this setting: 100 minus Amax, read-out: % degradation of WIZ (100-Amax).

These results are taken from patent publication US11566022B2, “3-(5-methoxy-1-oxoisoindolin-2-yl)piperidine-2,6-dione derivatives and uses thereof” (NOVARTIS AG, priority 2019, dated 2023).

Read-outs that look alike come from different tables or passages of the source.

Chain of HiBit-WIZ fusion protein (O95785 whole entry, the tested form may be a part): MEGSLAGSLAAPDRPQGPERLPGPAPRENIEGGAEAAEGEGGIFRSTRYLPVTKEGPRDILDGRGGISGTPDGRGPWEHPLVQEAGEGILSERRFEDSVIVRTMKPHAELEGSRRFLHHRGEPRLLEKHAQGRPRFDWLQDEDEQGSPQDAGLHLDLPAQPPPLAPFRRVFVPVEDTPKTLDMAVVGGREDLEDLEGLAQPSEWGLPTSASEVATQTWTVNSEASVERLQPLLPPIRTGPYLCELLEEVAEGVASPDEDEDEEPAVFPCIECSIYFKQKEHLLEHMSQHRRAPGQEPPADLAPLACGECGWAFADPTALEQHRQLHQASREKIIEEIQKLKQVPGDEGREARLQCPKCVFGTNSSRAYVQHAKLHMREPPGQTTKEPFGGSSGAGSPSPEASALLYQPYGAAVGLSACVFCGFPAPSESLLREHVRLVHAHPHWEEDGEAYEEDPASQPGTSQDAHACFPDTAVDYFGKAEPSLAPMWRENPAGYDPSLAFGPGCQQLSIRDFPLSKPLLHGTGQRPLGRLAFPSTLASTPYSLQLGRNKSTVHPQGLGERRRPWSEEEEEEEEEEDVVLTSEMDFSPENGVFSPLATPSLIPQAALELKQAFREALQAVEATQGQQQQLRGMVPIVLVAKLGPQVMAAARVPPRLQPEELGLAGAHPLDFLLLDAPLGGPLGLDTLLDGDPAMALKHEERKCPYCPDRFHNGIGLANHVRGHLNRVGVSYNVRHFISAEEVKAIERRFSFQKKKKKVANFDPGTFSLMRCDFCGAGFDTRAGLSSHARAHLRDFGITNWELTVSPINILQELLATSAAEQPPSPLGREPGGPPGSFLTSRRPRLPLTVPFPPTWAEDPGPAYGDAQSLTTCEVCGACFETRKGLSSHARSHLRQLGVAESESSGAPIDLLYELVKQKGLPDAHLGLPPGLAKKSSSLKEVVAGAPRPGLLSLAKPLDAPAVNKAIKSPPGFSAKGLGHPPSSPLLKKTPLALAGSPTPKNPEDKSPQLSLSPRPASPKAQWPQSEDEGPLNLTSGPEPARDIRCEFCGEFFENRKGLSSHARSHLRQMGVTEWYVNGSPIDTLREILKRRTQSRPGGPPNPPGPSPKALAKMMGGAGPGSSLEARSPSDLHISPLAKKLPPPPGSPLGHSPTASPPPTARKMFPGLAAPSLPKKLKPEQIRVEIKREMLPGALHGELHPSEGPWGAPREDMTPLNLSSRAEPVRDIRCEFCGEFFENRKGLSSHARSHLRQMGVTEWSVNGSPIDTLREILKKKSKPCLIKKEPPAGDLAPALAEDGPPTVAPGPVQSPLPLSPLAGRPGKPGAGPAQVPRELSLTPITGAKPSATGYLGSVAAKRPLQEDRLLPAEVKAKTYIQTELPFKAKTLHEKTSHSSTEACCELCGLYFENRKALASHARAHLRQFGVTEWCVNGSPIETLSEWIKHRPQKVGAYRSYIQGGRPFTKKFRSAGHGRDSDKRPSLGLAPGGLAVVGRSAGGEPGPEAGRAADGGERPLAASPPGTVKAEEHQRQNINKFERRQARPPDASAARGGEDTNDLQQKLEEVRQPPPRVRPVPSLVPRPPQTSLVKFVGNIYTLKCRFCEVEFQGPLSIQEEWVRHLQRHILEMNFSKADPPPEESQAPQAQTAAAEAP
Chain of HiBit-WIZ fusion protein (Q96SW2 whole entry, the tested form may be a part): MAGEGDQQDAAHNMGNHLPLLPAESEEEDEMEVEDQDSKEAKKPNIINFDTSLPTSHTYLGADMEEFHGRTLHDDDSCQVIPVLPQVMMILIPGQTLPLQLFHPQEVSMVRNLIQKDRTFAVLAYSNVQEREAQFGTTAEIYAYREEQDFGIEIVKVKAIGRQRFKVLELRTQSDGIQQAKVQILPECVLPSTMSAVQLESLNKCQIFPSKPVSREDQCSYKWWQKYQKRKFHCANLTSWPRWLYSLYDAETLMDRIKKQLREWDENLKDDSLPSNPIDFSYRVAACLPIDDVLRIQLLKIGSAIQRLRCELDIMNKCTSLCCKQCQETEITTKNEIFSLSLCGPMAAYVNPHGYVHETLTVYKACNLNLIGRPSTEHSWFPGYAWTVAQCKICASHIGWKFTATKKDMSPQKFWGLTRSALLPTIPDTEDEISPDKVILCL
Chain of HiBit-WIZ fusion protein (Q16531 whole entry partner, the tested form may be a part): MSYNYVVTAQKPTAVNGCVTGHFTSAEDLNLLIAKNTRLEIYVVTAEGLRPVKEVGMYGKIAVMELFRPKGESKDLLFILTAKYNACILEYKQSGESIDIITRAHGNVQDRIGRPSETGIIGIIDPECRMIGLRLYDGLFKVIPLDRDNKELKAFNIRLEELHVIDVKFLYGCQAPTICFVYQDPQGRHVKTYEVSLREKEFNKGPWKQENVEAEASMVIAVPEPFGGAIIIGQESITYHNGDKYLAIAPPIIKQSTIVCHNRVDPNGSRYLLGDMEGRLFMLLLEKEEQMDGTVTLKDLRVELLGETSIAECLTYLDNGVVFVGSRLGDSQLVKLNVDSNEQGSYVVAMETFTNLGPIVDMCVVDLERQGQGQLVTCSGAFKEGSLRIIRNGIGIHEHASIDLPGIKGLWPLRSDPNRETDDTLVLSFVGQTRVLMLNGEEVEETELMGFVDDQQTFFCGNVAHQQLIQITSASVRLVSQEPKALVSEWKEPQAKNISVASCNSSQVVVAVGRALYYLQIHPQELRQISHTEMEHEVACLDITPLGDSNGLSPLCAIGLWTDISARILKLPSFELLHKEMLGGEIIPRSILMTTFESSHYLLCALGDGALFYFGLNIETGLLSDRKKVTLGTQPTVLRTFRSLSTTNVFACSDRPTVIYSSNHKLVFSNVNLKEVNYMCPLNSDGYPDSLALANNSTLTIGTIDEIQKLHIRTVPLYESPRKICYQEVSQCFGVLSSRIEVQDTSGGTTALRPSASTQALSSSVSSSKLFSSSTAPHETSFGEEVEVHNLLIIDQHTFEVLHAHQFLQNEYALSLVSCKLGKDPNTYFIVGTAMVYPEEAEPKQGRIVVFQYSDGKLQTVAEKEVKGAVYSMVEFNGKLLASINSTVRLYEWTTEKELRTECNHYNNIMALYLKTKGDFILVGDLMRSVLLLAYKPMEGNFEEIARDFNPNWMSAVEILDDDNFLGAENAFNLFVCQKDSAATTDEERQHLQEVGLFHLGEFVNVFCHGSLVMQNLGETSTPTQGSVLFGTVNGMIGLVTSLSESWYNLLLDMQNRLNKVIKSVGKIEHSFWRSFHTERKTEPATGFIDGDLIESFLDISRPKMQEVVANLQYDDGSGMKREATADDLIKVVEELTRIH

In the case of `O=C1CCC(N2Cc3cc(OC[C@H]4CCCCN4Cc4ccc5c(c4)OCO5)ccc3C2=O)C(=O)N1` (stereo partly drawn) [Compound I-137, 3-(5-(((R)-1-(benzo[d][1,3]dioxol-5-ylmethyl)piperidin-2-yl)methoxy)-1-oxoisoindolin-2-yl)piperidine-2,6-dione], the remaining activity stood at 10% and the DC50 came out at 1.5 nM. In addition, the Dmax under setting [1] was 90%.

Take `O=C1CCC(N2Cc3cc(OC[C@H]4CCCCN4Cc4cccc(F)c4O)ccc3C2=O)C(=O)N1` (some centres unmarked) [Compound I-143]: the remaining activity at up to 25 µM came out at 62.6%. Under setting [2], the Dmax was 37.4%.

With `O=C1CCC(N2Cc3cc(OC[C@H]4CCCCN4Cc4cc(F)c(F)c(F)c4)ccc3C2=O)C(=O)N1` (some centres unmarked) [Compound I-144], the remaining activity at up to 25 µM stood at 6.3% and the DC50 was 76 nM. Besides, the Dmax under setting [2] came to 93.7%.

As to `Cc1nc(C)c(CN2CCCC[C@@H]2COc2ccc3c(c2)CN(C2CCC(=O)NC2=O)C3=O)s1` (some centres unmarked) [Compound I-145], the remaining activity at up to 25 µM came to 2.68% and the DC50 was 19 nM. Also, the Dmax under setting [2] is 97.3%.

In the case of `O=C1CCC(N2Cc3cc(OC[C@H]4CCCCN4Cc4ccncc4)ccc3C2=O)C(=O)N1` (some centres unmarked) [Compound I-146], the remaining activity at up to 25 µM stood at 31.3% and the DC50 came out at 2200 nM. Under setting [2], the Dmax stood at 68.7%.

As for `O=C1CCC(N2Cc3cc(OC[C@H]4CCCCN4Cc4c(F)cccc4F)ccc3C2=O)C(=O)N1` (some centres unmarked) [Compound I-147], the remaining activity at up to 25 µM came out at 28.4% and the DC50 was 1080 nM. Moreover, under setting [2], the Dmax turned out to be 71.6%.

As to `O=C1CCC(N2Cc3cc(OC[C@H]4CCCCN4Cc4ccc(O)cc4)ccc3C2=O)C(=O)N1` (some centres unmarked) [Compound I-148], the remaining activity at up to 25 µM is 5.51% and the DC50 amounted to 20 nM. Also, under setting [2], the Dmax worked out at 94.5%.

Turning to `O=C1CCC(N2Cc3cc(OC[C@H]4CCCCN4Cc4cccnc4F)ccc3C2=O)C(=O)N1` (some centres unmarked) [Compound I-149], the remaining activity at up to 25 µM was 43.1% and the DC50 came to 11400 nM. Under setting [2], the Dmax was found to be 56.9%.

In the case of `O=C1CCC(N2Cc3cc(OC[C@H]4CCCCN4Cc4cnc5ccccc5c4)ccc3C2=O)C(=O)N1` (some centres unmarked) [Compound I-150], the remaining activity at up to 25 µM was 1.39% and the DC50 stood at 17 nM. Under setting [2], the Dmax was determined as 98.6%.

`Cc1csc(CN2CCCC[C@@H]2COc2ccc3c(c2)CN(C2CCC(=O)NC2=O)C3=O)n1` (some centres unmarked) [Compound I-151]: the remaining activity at up to 25 µM came out at 34.9% and the DC50 worked out at 3430 nM. In addition, under setting [2], the Dmax was 65.1%.

Regarding `O=C1CCC(N2Cc3cc(OC[C@H]4CCCCN4Cc4ccc5ccccc5n4)ccc3C2=O)C(=O)N1` (some centres unmarked) [Compound I-152], the remaining activity at up to 25 µM is 2.52% and the DC50 was 48 nM. The Dmax under setting [2] was 97.5%.

As to `CCc1cc(CN2CCCC[C@@H]2COc2ccc3c(c2)CN(C2CCC(=O)NC2=O)C3=O)ccc1C1CCN(C(=O)OC(C)(C)C)CC1` (stereo partly drawn) [Compound I-155, Tert-butyl 4-(4-(((2R)-2-(((2-(2,6-dioxopiperidin-3-yl)-1-oxoisoindolin-5-yl)oxy)methyl)piperidin-1-yl)methyl)-2-ethylphenyl)piperidine-1-carboxylate], the remaining activity at up to 25 µM stood at 24.9% and the DC50 is 20 nM. For the same molecule, under setting [2], the Dmax amounted to 75.2%.

Consider `CCc1cc(CN2CCCC[C@@H]2COc2ccc3c(c2)CN(C2CCC(=O)NC2=O)C3=O)ccc1C1CCN(CC)CC1` (stereo partly drawn) [Compound I-157, 3-(5-(((R)-1-(3-ethyl-4-(1-ethylpiperidin-4-yl)benzyl)piperidin-2-yl)methoxy)-1-oxoisoindolin-2-yl)piperidine-2,6-dione], for which the remaining activity was 37% and the DC50 amounted to 160 nM. The Dmax under setting [1] was 63%.

Consider `CC(C)(C)c1ccc(CN2CCCC[C@@H]2COc2ccc3c(c2)CN(C2CCC(=O)NC2=O)C3=O)cc1` (some centres unmarked) [Compound I-158], for which the remaining activity at up to 25 µM was determined as 5.93% and the DC50 was 0.083 nM. The Dmax under setting [2] stood at 94.1%.

In the case of `O=C1CCC(N2Cc3cc(OC[C@H]4CCCCN4Cc4ccc(N5CCCCC5)cc4)ccc3C2=O)C(=O)N1` (stereo partly drawn) [Compound I-161, 3-(1-oxo-5-(((R)-1-(4-(piperidin-1-yl)benzyl)piperidin-2-yl)methoxy)isoindolin-2-yl)piperidine-2,6-dione], the remaining activity at up to 25 µM amounted to 8.45% and the DC50 stood at 0.37 nM. Moreover, the Dmax under setting [2] was 91.5%.

Consider `COC12CC(CN3CCCC[C@@H]3COc3ccc4c(c3)CN(C3CCC(=O)NC3=O)C4=O)(C1)C2` (stereo partly drawn) [Compound I-163, 3-(5-(((R)-1-((3-methoxybicyclo[1.1.1]pentan-1-yl)methyl)piperidin-2-yl)methoxy)-1-oxoisoindolin-2-yl)piperidine-2,6-dione], for which the remaining activity at up to 25 µM stood at 29.5% and the DC50 was determined as 29 nM. Under setting [2], the Dmax came to 70.5%.

Turning to `CCN1CCN(c2ccc(F)cc2CN2CCCC[C@@H]2COc2ccc3c(c2)CN(C2CCC(=O)NC2=O)C3=O)CC1` (stereo partly drawn) [Compound I-169, 3-(5-(((R)-1-(2-(4-ethylpiperazin-1-yl)-5-fluorobenzyl)piperidin-2-yl)methoxy)-1-oxoisoindolin-2-yl)piperidine-2,6-dione], the remaining activity is 15.4% and the DC50 stood at 34 nM. Further, the Dmax under setting [1] is 84.6%.

For `O=C1CCC(N2Cc3cc(OC[C@H]4CCCCN4Cc4ccc(C5(C(F)(F)F)CC5)cc4)ccc3C2=O)C(=O)N1` (stereo partly drawn) [Compound I-173, 3-(1-oxo-5-(((R)-1-(4-(1-(trifluoromethyl)cyclopropyl)benzyl)piperidin-2-yl)methoxy)isoindolin-2-yl)piperidine-2,6-dione], the remaining activity at up to 25 µM stood at 5.71% and the DC50 was determined as 0.22 nM. Under setting [2], the Dmax came to 94.3%.

As to `O=C1CCC(N2Cc3cc(OC[C@H]4CCCCN4Cc4cccc5c4NCCO5)ccc3C2=O)C(=O)N1` (stereo partly drawn) [Compound I-178, 3-(5-(((R)-1-((3,4-dihydro-2H-benzo[b][1,4]oxazin-5-yl)methyl)piperidin-2-yl)methoxy)-1-oxoisoindolin-2-yl)piperidine-2,6-dione], the remaining activity at up to 25 µM came to 21.3% and the DC50 worked out at 20 nM. The Dmax under setting [2] is 78.7%.

Consider `CCN1CCOc2cccc(CN3CCCC[C@@H]3COc3ccc4c(c3)CN(C3CCC(=O)NC3=O)C4=O)c21` (stereo partly drawn) [Compound I-179, 3-(5-(((R)-1-((4-ethyl-3,4-dihydro-2H-benzo[b][1,4]oxazin-5-yl)methyl)piperidin-2-yl)methoxy)-1-oxoisoindolin-2-yl)piperidine-2,6-dione], for which the remaining activity amounted to 26.1% and the DC50 came out at 5.7 nM. Under setting [1], the Dmax stood at 73.9%.

`O=C1CCC(N2Cc3cc(OC[C@H]4CCCCN4Cc4cccc5c4NC(=O)CO5)ccc3C2=O)C(=O)N1` (stereo partly drawn) [Compound I-180, 3-(1-oxo-5-(((R)-1-((3-oxo-3,4-dihydro-2H-benzo[b][1,4]oxazin-5-yl)methyl)piperidin-2-yl)methoxy)isoindolin-2-yl)piperidine-2,6-dione]: the remaining activity at up to 25 µM stood at 84.7% and the DC50 turned out to be 20 nM. Besides, the Dmax under setting [2] was found to be 15.3%.

In the case of `O=C1CCC(N2Cc3cc(OC[C@H]4CCCCN4CCOCc4ccccc4)ccc3C2=O)C(=O)N1` (stereo partly drawn) [Compound I-183, 3-(5-(((R)-1-(2-(benzyloxy)ethyl)piperidin-2-yl)methoxy)-1-oxoisoindolin-2-yl)piperidine-2,6-dione], the remaining activity at up to 25 µM was 13.9% and the DC50 was 4 nM. For the same molecule, the Dmax under setting [2] worked out at 86.1%.

For `O=C1CCC(N2Cc3cc(OC[C@H]4CCCCN4Cc4ccc5c(c4)OC(F)(F)O5)ccc3C2=O)C(=O)N1` (some centres unmarked) [Compound I-184], the remaining activity at up to 25 µM amounted to 7.28% and the DC50 worked out at 0.47 nM. In addition, the Dmax under setting [2] was 92.7%.

Regarding `O=C1CCC(N2Cc3cc(OC[C@H]4CCCCN4Cc4ccc(N5CCOCC5)nc4)ccc3C2=O)C(=O)N1` (stereo partly drawn) [Compound I-186, 3-(5-(((R)-1-((6-morpholinopyridin-3-yl)methyl)piperidin-2-yl)methoxy)-1-oxoisoindolin-2-yl)piperidine-2,6-dione], the remaining activity at up to 25 µM was 19.1% and the DC50 came to 4.3 nM. Moreover, the Dmax under setting [2] came to 80.8%.

In the case of `O=C1CCC(N2Cc3cc(OC[C@H]4CCCCN4Cc4ccc(C5=CCOCC5)cc4)ccc3C2=O)C(=O)N1` (stereo partly drawn) [Compound I-188, 3-(5-(((R)-1-(4-(3,6-dihydro-2H-pyran-4-yl)benzyl)piperidin-2-yl)methoxy)-1-oxoisoindolin-2-yl)piperidine-2,6-dione], the remaining activity at up to 25 µM stood at 13.4% and the DC50 turned out to be 0.35 nM. The Dmax under setting [2] was 86.6%.

Regarding `CC(C)(C)OC(=O)N1CCN(c2ccc(CN3CCCC[C@@H]3COc3ccc4c(c3)CN(C3CCC(=O)NC3=O)C4=O)cn2)CC1` (stereo partly drawn) [Compound I-189, Tert-butyl 4-(5-(((2R)-2-(((2-(2,6-dioxopiperidin-3-yl)-1-oxoisoindolin-5-yl)oxy)methyl)piperidin-1-yl)methyl)pyridin-2-yl)piperazine-1-carboxylate], the remaining activity at up to 25 µM is 26.8% and the DC50 was 4.3 nM. Further, under setting [2], the Dmax was 73.2%.

Consider `CCN1CCN(c2ccc(CN3CCCC[C@@H]3COc3ccc4c(c3)CN(C3CCC(=O)NC3=O)C4=O)cn2)CC1` (stereo partly drawn) [Compound I-191, 3-(5-(((R)-1-((6-(4-ethylpiperazin-1-yl)pyridin-3-yl)methyl)piperidin-2-yl)methoxy)-1-oxoisoindolin-2-yl)piperidine-2,6-dione], for which the remaining activity at up to 25 µM is 32.9% and the DC50 worked out at 150 nM. In addition, the Dmax under setting [2] came to 67.2%.

Regarding `COc1cc(CN2CCCC[C@@H]2COc2ccc3c(c2)CN(C2CCC(=O)NC2=O)C3=O)ccc1C#N` (some centres unmarked) [Compound I-192], the remaining activity at up to 25 µM amounted to 37.8% and the DC50 was determined as 25 nM. Under setting [2], the Dmax is 62.2%.
